From US20230355584A1, “COMPOSITIONS AND METHODS FOR THE TREATMENT OF LIPID-RELATED DISORDERS” (Raziel Therapeutics Ltd., priority 2020, published 2023)

Key:
Format in all cases: in vivo
submental fat [1] = experiment: Phase 2a study: submental fat volume by MRI; conditions: human subjects, day 84 vs prior to injection
Procedure: 28 patients with submental skin fold thickness greater than 1.5 cm as measured with calipers were divided into two cohorts, Cohort 1 (12 patients) and Cohort 2 (16 subjects). In Cohort 1, 8 subjects were injected with a 50 mg per mL solution of 5-(3,6-dibromo-9H-carbazol-9-yl)-N,N,N-trimethylpentan-1-aminium chloride (Compound 1A) in a vehicle comprising water, propylene glycol, and a surfactant, and 4 patients were injected with a placebo solution comprising vehicle only. In Cohort 2, 6 patients were dosed with a placebo solution comprising vehicle only, and 10 patients were injected with a 50 mg per mL solution of 5-(3,6-dibromo-9H-carbazol-9-yl)-N,N,N-trimethylpentan-1-aminium chloride in a vehicle comprising water, propylene glycol, and a surfactant. […] Cohort 2 subjects began treatment after Cohort 1 was evaluated for safety on day 28 post-injection. Submental fat volume was determined via magnetic resonance imaging (MRI) prior to injection and on day 84 post-injection. Treatment efficacy was evaluated via the Physician’s Global Assessment (PGS) questionnaire on days 28, 56, and 84 after injection, as described above. Patient satisfaction was assessed using the FACE-Q questionnaire prior to injection and on days 28, 56, and 84 after injection, as described above.

submental fat [2] = experiment: Phase 2a study: Subject Face-Q Questionnaire (subject satisfaction); conditions: human subjects, Day 84 vs. baseline
Procedure: 28 patients with submental skin fold thickness greater than 1.5 cm as measured with calipers were divided into two cohorts, Cohort 1 (12 patients) and Cohort 2 (16 subjects). In Cohort 1, 8 subjects were injected with a 50 mg per mL solution of 5-(3,6-dibromo-9H-carbazol-9-yl)-N,N,N-trimethylpentan-1-aminium chloride (Compound 1A) in a vehicle comprising water, propylene glycol, and a surfactant, and 4 patients were injected with a placebo solution comprising vehicle only. […] Dosing is determined by cohort, as shown in Table 6 below: The maximum compound dose was 120 mg per patient (a total of 48 injections at 2.5 mg per injection) for Cohort 1 and 240 mg per patient (a total of 48 injections at 5 mg per injection) for Cohort 2. […] Cohort 2 subjects began treatment after Cohort 1 was evaluated for safety on day 28 post-injection. Subjects were also evaluated by a Face-Q Questionnaire, at baseline visit prior to injection and at posttreatment follow up visits on Days 28, 56, and 84. […] Submental fat volume was determined via magnetic resonance imaging (MRI) prior to injection and on day 84 post-injection. Treatment efficacy was evaluated via the Physician’s Global Assessment (PGS) questionnaire on days 28, 56, and 84 after injection, as described above. […]

[3] = Phase 2a study: safety and tolerability (adverse events, vital signs); conditions: human subjects
Procedure: 28 patients with submental skin fold thickness greater than 1.5 cm as measured with calipers were divided into two cohorts, Cohort 1 (12 patients) and Cohort 2 (16 subjects). In Cohort 1, 8 subjects were injected with a 50 mg per mL solution of 5-(3,6-dibromo-9H-carbazol-9-yl)-N,N,N-trimethylpentan-1-aminium chloride (Compound 1A) in a vehicle comprising water, propylene glycol, and a surfactant, and 4 patients were injected with a placebo solution comprising vehicle only. In Cohort 2, 6 patients were dosed with a placebo solution comprising vehicle only, and 10 patients were injected with a 50 mg per mL solution of 5-(3,6-dibromo-9H-carbazol-9-yl)-N,N,N-trimethylpentan-1-aminium chloride in a vehicle comprising water, propylene glycol, and a surfactant.
The maximum compound dose was 120 mg per patient (a total of 48 injections at 2.5 mg per injection) for Cohort 1 and 240 mg per patient (a total of 48 injections at 5 mg per injection) for Cohort 2. Injections were given at a 90° angle to the injected skin surface and spaced of a submental area-shaped grid in which the distance between rows was 1 cm and the distance between columns was also 1 cm. Cohort 2 subjects began treatment after Cohort 1 was evaluated for safety on day 28 post-injection.

submental fat [4] = experiment: Phase 2a study: Physician Impression scale (physician's global assessment of submental fat); conditions: human, 18 treated subjects (low and high dose), Day 84 vs baseline
Procedure: 28 patients with submental skin fold thickness greater than 1.5 cm as measured with calipers were divided into two cohorts, Cohort 1 (12 patients) and Cohort 2 (16 subjects). In Cohort 1, 8 subjects were injected with a 50 mg per mL solution of 5-(3,6-dibromo-9H-carbazol-9-yl)-N,N,N-trimethylpentan-1-aminium chloride (Compound 1A) in a vehicle comprising water, propylene glycol, and a surfactant, and 4 patients were injected with a placebo solution comprising vehicle only. […] Dosing is determined by cohort, as shown in Table 6 below: The maximum compound dose was 120 mg per patient (a total of 48 injections at 2.5 mg per injection) for Cohort 1 and 240 mg per patient (a total of 48 injections at 5 mg per injection) for Cohort 2. […] Cohort 2 subjects began treatment after Cohort 1 was evaluated for safety on day 28 post-injection. […] Submental fat volume was determined via magnetic resonance imaging (MRI) prior to injection and on day 84 post-injection. Treatment efficacy was evaluated via the Physician’s Global Assessment (PGS) questionnaire on days 28, 56, and 84 after injection, as described above. Patient satisfaction was assessed using the FACE-Q questionnaire prior to injection and on days 28, 56, and 84 after injection, as described above.

C[N+](C)(C)CCCCCn1c2ccc(Br)cc2c2cc(Br)ccc21.[Cl-] [Compound 1A, 5-(3,6-dibromo-9H-carbazol-9-yl)-N,N,N-trimethylpentan-1-aminium chloride]
Submental fat volume reduction (MRI) (submental fat [1]; high dose (Cohort 2, 5 mg/injection, up to 240 mg), P<0.05 vs the placebo group): -22.2% ± 14.9
Submental fat volume reduction (MRI) (submental fat [1]; low dose (Cohort 1, 2.5 mg/injection, up to 120 mg), P=0.55 vs the placebo group, NS): -10.6% ± 14.5
Fold increase in mean subject satisfaction score (Face-Q) (submental fat [2]; high dose): 2.5 fold
Fold increase in mean subject satisfaction score (Face-Q) (submental fat [2]; low dose): 2.4 fold
Severity of edema and induration compared to placebo ([3]; high dose group, particularly in the first 24 hours following injection): higher severity
Safety and tolerability ([3]; low and high doses (averaged doses of 80 mg and 158.5 mg), no clinically significant changes in vital signs): safe and well tolerated
Subjects demonstrating improvement in submental fat (Physician Impression scale) (submental fat [4]): all but one of the 18
